Patent US20140315886A1, “QUINAZOLINES AS THERAPEUTIC COMPOUNDS AND RELATED METHODS OF USE” (OTSUKA PHARMACEUTICAL CO., LTD., priority 2011, published 2014)

biological target: T1, purified STEP46 enzyme (Homo sapiens, UniProt P54829); assay: STEP46 biochemical assay (DiFMUP fluorescence phosphatase assay); conditions: DiFMUP 10 μM, read-out: STEP IC50
T1 sequence (P54829 197-565 limits assumed): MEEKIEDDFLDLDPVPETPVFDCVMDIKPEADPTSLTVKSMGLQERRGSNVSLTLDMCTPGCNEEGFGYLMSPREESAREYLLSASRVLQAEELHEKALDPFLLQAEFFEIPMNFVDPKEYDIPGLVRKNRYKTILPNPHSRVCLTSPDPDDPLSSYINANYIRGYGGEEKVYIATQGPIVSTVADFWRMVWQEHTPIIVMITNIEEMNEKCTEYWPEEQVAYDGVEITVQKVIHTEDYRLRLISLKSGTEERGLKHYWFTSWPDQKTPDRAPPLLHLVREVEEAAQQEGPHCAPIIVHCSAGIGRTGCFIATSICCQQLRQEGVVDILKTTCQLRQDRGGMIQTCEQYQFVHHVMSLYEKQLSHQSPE
Method: Serial dilutions of compounds were performed in 100% DMSO and 1 uL of compounds were dispensed into 384-well black polystyrene plates (Corning, N.Y.). Compounds were incubated with 24 uL of buffer containing 50 mM Hepes, 1 mM DTT, 0.02% Brij35, 1 ng/well purified STEP46 enzyme for […] at room temperature. The reaction was initiated by addition of 25 uL of DiFMUP (6,8-difluoro-4-methylumbelliferyl phosphate) (InVitrogen, CA) with a final concentration of 10 μM and incubated at 27° C. for 90 mM Final DMSO concentration is 2%. Plates were read with florescence intensity at excitation/emission of 360/460 nm using a PheraStar plate reader (BMG Labtech, NC).
Data were expressed as percentage (%) inhibition of enzyme activity. 0% inhibition is defined as the RFUs (relative fluorescence units) in the absence of compounds and 100% inhibition is defined as RFUs in the absence of STEP46 enzyme. IC50 values of compounds with inhibitory activity against STEP46 were determined by GraphPad Prism (version 4.03) using four parameter logistic equation. Some compounds act as activators. For compounds showing STEP46 enzymatic activation, data are represented as percentage of inhibition but with negative values at three representative concentrations (25, 50 and 100 uM).

| Structure (SMILES) | IC50 |
| --- | --- |
| CNc1nc(-c2cccnc2)nc2c(F)c(-c3ccncc3)ccc12 [Compound 519] | 1 to 10 µM |
| CCc1nc2ccc(Nc3nc(-c4cccnc4)nc4ccc(OC)cc34)cc2o1 [Compound 40] | > 10 µM |
| CNc1nc(-c2cccnc2)nc2ccc(-c3nnc(-c4ccccc4)s3)cc12 [Compound 466] | 1 to 10 µM |
| Fc1ccc2c(c1)N(c1nc(-c3cccnc3)nc3ccc(Br)cc13)CC2 [Compound 22] | 1 to 10 µM |
| CC(Nc1nc(-c2cccnc2)nc2cc(-c3cc(F)ccc3F)ccc12)c1ccccn1 (centres unmarked) [Compound 368] | 1 to 10 µM |
| CNc1nc(-c2cccnc2)nc2c(F)c(-c3ccc4sccc4c3)ccc12 [Compound 529] | 1 to 10 µM |
| CNc1nc(-c2cnccn2)nc2c(F)c(-c3ccc(F)cc3F)ccc12 [Compound 995] | 1 to 10 µM |
| Fc1cccc(-c2ccc3c(N4CCc5cc(Cl)ccc54)nc(-c4cccnc4)nc3c2)c1 [Compound 96] | 1 to 10 µM |
| FCCNc1nc(-c2cccnc2)nc2ccc(-c3cccc(F)c3F)cc12 [Compound 406] | > 10 µM |
| CCCOc1ccc2nc(-c3cccnc3)nc(N3CCc4cc(Cl)ccc43)c2c1 [Compound 137] | < 1 µM |
| CNc1nc(-c2cccnc2)nc2cc(-c3cccs3)ccc12 [Compound 319] | 1 to 10 µM |
| COc1ccc2nc(-c3cccnc3)nc(Nc3ccc4nc(C)oc4c3)c2c1 [Compound 39] | 1 to 10 µM |
| Fc1ccc(-c2ccc3c(NCCc4ccccn4)nc(-c4cccnc4)nc3c2)cc1 [Compound 340] | 1 to 10 µM |
| CNc1nc(-c2cccnc2)nc2ccc(-c3cccc(OC(C)C)c3)cc12 [Compound 257] | > 10 µM |
| CNc1nc(-c2cccnc2)nc2ccc(-c3ccnc(C#N)c3)cc12 [Compound 167] | 1 to 10 µM |
| CNc1nc(-c2cccnc2)nc2ccc(-c3cc(C)oc3C)cc12 [Compound 285] | 1 to 10 µM |
| Clc1cncc(Nc2nc(-c3cccnc3)nc3ccc(Cl)cc23)c1 [Compound 70] | < 1 µM |
| Fc1ccc(-c2ccc3nc(-c4cccnc4)nc(Nc4ccccn4)c3c2)cc1 [Compound 437] | 1 to 10 µM |
| CNc1nc(-c2cccnc2)nc2c(F)c(-c3ccc(F)cc3OC)ccc12 [Compound 543] | 1 to 10 µM |
| CNc1nc(-c2cccnc2)nc2ccc(-c3cc(F)cc(F)c3)c(OC)c12 [Compound 488] | > 10 µM |
| CNc1nc(-c2cccnc2)nc2c(OC)cc(-c3ccccc3Cl)cc12 [Compound 306] | 1 to 10 µM |
| CNc1nc(-c2cccnc2)nc2ccc(-c3c(F)cccc3F)cc12 [Compound 458] | 1 to 10 µM |
| CNc1nc(-c2cccnc2)nc2ccc(-c3cccc(S(C)(=O)=O)c3)cc12 [Compound 245] | > 10 µM |
| COc1cc(F)ccc1-c1ccc2c(N3CCc4cc(Cl)ccc43)nc(-c3cccnc3)nc2c1 [Compound 110] | < 1 µM |
| Fc1ccc(-c2ccc3nc(-c4cccnc4)nc(N4CCc5cc(Cl)ccc54)c3c2)c(F)c1 [Compound 72] | 1 to 10 µM |

| Structure (SMILES) | IC50 |
| --- | --- |
| CNc1nc(-c2cnccn2)nc2ccc(-c3ccc(F)cc3F)c(F)c12 [Compound 976] | 1 to 10 µM |
| CNc1nc(-c2cccnc2)nc2cc(F)c(-c3ccc(F)cc3)cc12 [Compound 587] | 1 to 10 µM |
| CNc1nc(-c2cnccn2)nc2cc(-c3ccc(F)c(F)c3)ccc12 [Compound 397] | 1 to 10 µM |
| CCOc1ccc2nc(-c3cccnc3)nc(Nc3ccc(C)cn3)c2c1 [Compound 56] | 1 to 10 µM |
| COC1CN(c2nc(-c3cccnc3)nc3ccc(-c4ccc(F)cc4F)cc23)C1 [Compound 413] | 1 to 10 µM |
| CNc1nc(-c2cnccn2)nc2cc(-c3cccc(F)c3)ccc12 [Compound 392] | 1 to 10 µM |
| CN(C)CCCN(C)c1nc(-c2cccnc2)nc2cc(-c3cc(F)ccc3F)ccc12 [Compound 314] | > 10 µM |
| CNc1nc(-c2cccnc2)nc2c(F)c(-c3cccc(F)c3F)ccc12 [Compound 515] | 1 to 10 µM |
| Fc1ccc(-c2ccc3nc(-c4cccnc4)nc(-c4ncco4)c3c2)c(F)c1 [Compound 425] | 1 to 10 µM |
| CNC(=O)C1CN(c2nc(-c3cccnc3)nc3ccc(-c4ccc(F)cc4F)cc23)C1 [Compound 423] | 1 to 10 µM |
| CC(Nc1nc(-c2cccnc2)nc2ccc(-c3cccc(F)c3F)cc12)c1ccccc1 (centres unmarked) [Compound 606] | 1 to 10 µM |
| CNc1nc(-c2cccnc2)nc2c(C)c(-c3ccc(F)c(F)c3F)ccc12 [Compound 286] | 1 to 10 µM |
| CNc1nc(-c2cnccn2)nc2cc(-c3ccccc3F)ccc12 [Compound 391] | 1 to 10 µM |
| CNc1nc(-c2cccnc2)nc2cc(-c3ccc(F)cc3C)ccc12 [Compound 321] | 1 to 10 µM |
| CNc1nc(-c2cccnc2)nc2ccc(-c3ccc(F)cc3C(F)(F)F)cc12 [Compound 248] | > 10 µM |
| CNc1nc(-c2cccnc2)nc2c(OC)cc(-c3ccc(OC)cc3)cc12 [Compound 208] | 1 to 10 µM |
| Cc1ccc2c(c1)CCN2c1nc(-c2cccnc2)nc2ccc(-c3ccc(F)cc3)cc12 [Compound 79] | 1 to 10 µM |
| Cc1ccc2c(c1)N(c1nc(-c3cccnc3)nc3ccc(-c4cccc(F)c4F)cc13)CC2 [Compound 446] | 1 to 10 µM |
| CC(=O)Nc1cccc(-c2ccc3c(N4CCc5cc(Cl)ccc54)nc(-c4cccnc4)nc3c2)c1 [Compound 102] | 1 to 10 µM |
| CNc1nc(-c2cccnc2)nc2c(OC)cc(-c3ccc(C#N)cc3)cc12 [Compound 260] | > 10 µM |
| CNc1nc(-c2cccnc2)nc2c(C)c(-c3cc(F)cc(F)c3F)ccc12 [Compound 288] | 1 to 10 µM |
| Fc1ccc(-c2ccc3nc(-c4cccnc4)nc(N4CCc5ccc(Cl)cc54)c3c2)cc1 [Compound 93] | 1 to 10 µM |
| CNc1nc(-c2cccnc2)nc2cc(F)c(-c3cccc(F)c3F)cc12 [Compound 594] | 1 to 10 µM |
| Fc1ccc(-c2ccc3nc(-c4cccnc4)nc(Nc4cccc(F)n4)c3c2)cc1 [Compound 439] | 1 to 10 µM |
| CNc1nc(-c2cccnc2)nc2cc(Cl)c(-c3ccc(F)cc3F)cc12 [Compound 246] | 1 to 10 µM |

| Structure (SMILES) | IC50 |
| --- | --- |
| CCOc1ccc2nc(-c3cccnc3)nc(Nc3cncc(Cl)c3)c2c1 [Compound 69] | < 1 µM |
| CNc1nc(-c2cccnc2)nc2cc(-c3ccoc3)ccc12 [Compound 318] | > 10 µM |
| CNc1nc(-c2cccnc2)nc2ccc(-c3ccc4[nH]c(=O)[nH]c4c3)cc12 [Compound 168] | < 1 µM |
| Fc1ccc(-c2ccc3nc(-c4ccnnc4)nc(NCc4ccccn4)c3c2)c(F)c1 [Compound 329] | 1 to 10 µM |
| CC(Nc1nc(-c2cccnc2)nc2ccc(-c3ccccc3F)cc12)c1ccccn1 (centres unmarked) [Compound 366] | 1 to 10 µM |
| CNc1nc(-c2cccnc2)nc2c(C)c(-c3ccc4c(cnn4C)c3)ccc12 [Compound 298] | < 1 µM |
| CNc1nc(-c2cccnc2)nc2c(F)c(-c3cccc(C#N)c3)ccc12 [Compound 511] | 1 to 10 µM |
| CNc1nc(-c2cccnc2)nc2cc(C)c(-c3ccc(F)c(F)c3F)cc12 [Compound 301] | 1 to 10 µM |
| CNc1nc(-c2cccnc2)nc2cc(-c3ccc(C)o3)ccc12 [Compound 273] | 1 to 10 µM |
| CNc1nc(-c2cccnc2)nc2c(C)c(-c3cc(F)c(F)c(F)c3)ccc12 [Compound 289] | < 1 µM |
| CNc1nc(-c2cccnc2)nc2c(-c3ccc(F)c(F)c3)ccc(OC)c12 [Compound 496] | 1 to 10 µM |
| Cc1cncc(Nc2nc(-c3cccnc3)nc3ccc(Cl)cc23)c1 [Compound 66] | 1 to 10 µM |
| CNc1nc(-c2cccnc2)nc2c(-c3cccc(F)c3F)ccc(OC)c12 [Compound 492] | 1 to 10 µM |
| CNc1nc(-c2cccnc2)nc2c(F)c(-c3cc(F)c(F)c(F)c3)ccc12 [Compound 520] | < 1 µM |
| CNc1nc(-c2cccnc2)nc2cc(F)c(-c3cccc(OC)c3)cc12 [Compound 590] | 1 to 10 µM |
| CNc1nc(-c2cccnc2)nc2c(F)cc(-c3cc(F)ccc3F)cc12 [Compound 572] | 1 to 10 µM |
| CNc1nc(-c2cccnc2)nc2c(F)cc(-c3cc(F)cc(F)c3)cc12 [Compound 569] | 1 to 10 µM |
| CNc1nc(-c2cccnc2)nc2cc(-c3c(F)cc(F)cc3F)ccc12 [Compound 454] | 1 to 10 µM |
| CNc1nc(-c2cccnc2)nc2ccc(-c3ccc4oc(=O)[nH]c4c3)cc12 [Compound 462] | < 1 µM |
| CNc1nc(-c2cccnc2)nc2c(F)c(-c3ccc(C(F)(F)F)cc3)ccc12 [Compound 528] | 1 to 10 µM |
| Fc1ccc(Nc2nc(-c3cccnc3)nc3cc(Cl)ccc23)nc1 [Compound 52] | 1 to 10 µM |
| COc1ccc2nc(-c3cccnc3)nc(Nc3cncc(F)c3)c2c1 [Compound 25] | 1 to 10 µM |
| CNc1nc(-c2cccnc2)nc2ccc(-c3ccc(S(=O)(=O)C(C)C)cc3)cc12 [Compound 256] | > 10 µM |
| Clc1ccc2c(N3CCc4cccnc43)nc(-c3cccnc3)nc2c1 [Compound 62] | 1 to 10 µM |
